From article PMC8766756, “Insights on Cancer Cell Inhibition, Subcellular Activities, and Kinase Profile of Phenylacetamides Pending 1H-Imidazol-5-One Variants” (Frontiers in Pharmacology, 2022)
Values after ≈ are worked out from the molar mass of the structure shown. Like-named read-outs stand apart in the source and are kept apart here.

Legend:
HL60 cells = experiment: Cell cycle analysis by flow cytometry; type: cell-based, human; conditions: HL60, 1 µM, 48 h, vs untreated control
Protocol: The cell cycle analysis of the HL60 cells after treatment was performed with 1 µM of KIM-161 by using flow cytometry.
The cells (3.5 × 10^5/well) were incubated with 1 µM 4c (KIM-161) at 37°C for 48 h. Subsequently, the cells were collected and washed twice with ice-cold PBS (1X). The washed cells were fixed on ice for 20 min using a fixation buffer containing paraformaldehyde. Hoechst 33342 (10 μg/ml; Thermo Fisher Scientific, Inc.) was used for staining. The cells were then incubated in the dark for 30 min on ice. A minimum total of 20,000 events were acquired using a BD FACSAria III flow cytometer. Flowlogic version 7.2.1 software (Inivai Technologies, Victoria, Australia) was used to obtain the percentages of cells in the G1, S, and G2/M phases in the singlet-gated population.

[1] = Binding to mouse plasma proteins (equilibrium dialysis); type: in vitro ADME; conditions: pH 7.4, CD-1 mouse plasma, equilibrium dialysis 22 h, read-out: Mouse plasma protein binding (% free at 37°C)
Protocol: The equilibrium dialysis method for determining plasma protein binding was performed as previously described using 96-well dialyzer plates with a molecular weight cutoff of 5K (Harvard Apparatus, Holliston, MA) and a dual-plate rotator set to maximum speed (Harvard Apparatus, Holliston, MA) located in a 37°C incubator with a 10% CO2 atmospheric environment. The assays were run in triplicate. KIM-161 was added to CD-1 mouse plasma (Innovative Research, Novi, MI, sodium heparin added as anticoagulant; pH adjusted to 7.4 with 2N HCl on the day of use) in DMSO (final DMSO concentration 0.4%) to give a 10 µM final concentration. The drug/plasma mixture and buffer (Dulbecco's PBS 1X without calcium and magnesium, Mediatech, Inc., Herndon, VA) were placed in their respective sides; the wells were capped; and the plate was placed in the rotator and allowed to dialyze for 22 h. Following dialysis, aliquots of the buffer and plasma mixture were removed and mixed with aliquots of the opposite matrix in 96-well deep plates. The concentrations of the analytes from each side of the dialysis plate were determined by LC/MS/MS on a Waters Xevo TQ instrument as described above using positive electrospray ionization. […] The fraction unbound was calculated by dividing the drug concentration in the buffer side of the dialysis plate by the drug concentration in the plasma side.

NB4 leukemia cell line = experiment: CellTiter-Blue cell viability assay; type: cell-based; conditions: Homo sapiens, NB-4, 48 h
Protocol: (§1) The compounds were screened for their anticancer activities against a variety of cancer cell lines. The cytotoxic effect of the compounds was evaluated using the sulforhodamine B (SRB) cytotoxicity assay for breast cancer line (MCF7) and prostate cancer cell line (PC3) ([Vichai and Kirtikara, 2006]; [Rana et al., 2021]) and 3-(4,5-dimethylthiazol-2-yl)-2,5-diphenyl-2H-tetrazolium bromide (MTT) assay for the colon cancer (HCT116) cell lines ([El-Huneidi et al., 2020]). The CellTiter-Blue® cell viability assay was performed on the various leukemia cell lines, HL60, NB4, and KG1a cells ([Akter et al., 2019]). The IC50 values are illustrated in Table 1.
(§2) HL60, NB4, and KG1a were purchased from CLS Cell Line Service GmbH (Eppelheim, Germany). All cell lines were cultured in RPMI-1640 medium supplemented with 10% FBS (Thermo Fisher Scientific) and ciprofloxacin (10 μg/ml; Cipla Limited; Mumbai, India), at 37°C with 5% CO2 in a humidified incubator.
(§3) The CellTiter-Blue® Cell Viability assay was acquired from Promega Corporation (Madison, WI, USA). The cell viability assay was performed as follows: the cells (10^4/well) were incubated with a concentration gradient of the test compounds ranging from 0.01 to 100 μM, in 96-well plates for 48 h at 37°C. Subsequently, 20 µL of the CellTiter-Blue® Cell Viability reagent was added to each well and incubated for an additional 2 h for the development of fluorescence. The fluorescence emission was measured at 590 nm using the SpectraMax® i3x Multi-Mode Microplate Reader (Molecular Devices, LLC; San Jose, CA, USA.) and plotted against the drug concentrations to determine the IC50 of the test compounds.

KG1a leukemia cell line = experiment: CellTiter-Blue cell viability assay; type: cell-based; conditions: Homo sapiens, KG-1a, 48 h
Protocol: as §1, §2, §3

HL60 leukemia cell line = experiment: CellTiter-Blue cell viability assay; type: cell-based; conditions: Homo sapiens, HL-60, 48 h, read-out: IC50 ± SEM HL60
Protocol: as §1, §2, §3

[2] = Maximum kinetic aqueous solubility; type: physicochemical; conditions: phosphate buffer, pH 7.4, aqueous buffer, kinetic from dmso stock
Protocol: Solubility assays were performed using the Millipore MultiScreen® HTS-PFC Filter Plates designed for the solubility assays (EMD Millipore, Billerica, MA). Assays were run in triplicate. The 96-well plates consist of two chambers separated by a filter. Liquid handling was performed using JANUS® Verispan and MTD workstations (Perkin Elmer, Waltham, MA). About 4 µL of the KIM-161 solution (10 mM in DMSO) was added to 196 µL of phosphate buffer (45 mM potassium phosphate, 45 mM sodium acetate, 45 mM ethanolamine, pH = 7.4) in the top chamber to give a final DMSO concentration of 2% and a theoretical drug concentration of 200 µM. The plates were gently shaken for 90 min and then subjected to vacuum. The insoluble drug was captured on the filter. 160 µL of the filtrate was transferred to 96-well Griener UV-Star® analysis plates (Sigma-Aldrich, St. Louis, MO) containing 40 µL of acetonitrile. The test compound concentration in the filtrate is measured by UV absorbance on a Spectromax® Plus microplate reader (Molecular Devices, Sunnyvale, CA) using SoftMax Pro Software v.5.4.5. The absorbances at five wavelengths (280, 300, 320, 340, and 360 nm) were summed to generate the UV signal. Standard curves were generated by adding 4 µL of five concentrations of the test compound in DMSO to 40 µL of acetonitrile in UV Star plates followed by 156 µL of the appropriate solubility medium. […]

In the case of `COc1ccc(/C=C2\N=C(C)N(c3ccc(CC(=O)NCc4ccccc4)cc3)C2=O)cc1` [Compound 4c, (Z)-N-Benzyl-2-(4-(4-(4-methoxybenzylidene)-2-methyl-5-oxo-4,5-dihydro-1H-imidazol-1-yl)phenyl)acetamide], the “Cell cycle distribution: G0/G1 phase” value (HL60 cells) is reported as “decrease in the G0/G1 phase”, the “Cell cycle distribution: G2/M phase” value (HL60 cells) is reported as “increased the population of cells in the G2/M phase” and the “Cell cycle distribution: PreG phase” value (HL60 cells) is reported as “accumulate in PreG phase”. The “Cell cycle distribution: S phase” value (HL60 cells) was “no difference is seen in cell population in the S phase”, the fraction unbound at 22 h, 10 µM [1] was 0.05 and the IC50 (NB4 leukemia cell line) was 0.275 µM. It also gave an IC50 (KG1a leukemia cell line) of 0.893 µM, an IC50 (HL60 leukemia cell line) of 0.362 ± 0.02 µM and a solubility at 90 min ([2]; Max solubility in 2% DMSO/PBS, kinetic, pH 7.4) of 19.9 µM (≈ 8.75 µg/mL). For the same molecule, the solubility at 90 min ([2]; read-out: solubility) was ~20 µM (≈ 8.79 µg/mL).
